Test results from patent US20150010474A1, “Compounds And Methods For Selective Imaging And/Or Ablation” (Auckland Uniservices Limited, priority 2011, published 2015).

Key:
[1] = test system: human solid tumour xenograft NCI-H1299 (WT); experiment: Hypoxia-dependent binding by fluorescent immunohistochemistry with pimonidazole co-staining; assay type: in vivo, NIH-III nude mice; conditions: 60 mg/kg i.p., 60 minutes after 60 mg/kg pimonidazole; tumours excised after 120 minutes
Method: FIG. 10 illustrates the absence of hypoxic-dependent binding of compound 67 and compound 93 by fluorescent immune-histochemistry in the human solid tumour xenograft NCI-H1299, with reference to hypoxia staining by compound 15 and pimonidazole (Hypoxyprobe™) as internal standards (positive controls). NCI-H1299 WT tumours were inoculated subcutaneously onto the flank of NIH-Ill nude mice. When the mixed tumours reached approximately 800 mm^3, mice were dosed i.p. with 60 mg/kg of pimonidazole, and 60 minutes later dosed with either 60 mg/kg of compound 15, or 60 mg/kg of compound 67, or 60 mg/kg of compound 93. After 120 minutes the tumours were excised, and fixed in formalin before being embedded in paraffin wax. Tumour section were cut (5 microns) and mounted onto glass slides for immunodetection of bound adducts of compounds. Immunofluorescent microscopy was performed using a monoclonal antibody (Mab1, hybridoma clone 4.3.11.3) conjugated to Alexa-488 (Ex/Em 499/519; green) for the detection of pimonidazole adducts, and monoclonal antibody ELK3-51 directly conjugated to the fluorophore CY5 (Ex/Em 650/670 nm; red) for detection of adducts formed by compound 15 or compound 67 or compound 93. The overlap of pimonidazole with any one of these markers appears as yellow. Images were acquired on a Zeiss LSM 710 confocal microscope (×20 magnification).

[2] = test system: HCT116 wild type (WT) cancer cells; experiment: Inhibition of cell proliferation, low cell density IC50 assay; assay type: cell-based; conditions: Homo sapiens, HCT-116; 4 hour drug exposure, washing and regrowth for 5 days
Method: IC50 values were determined as the concentration of prodrug required to inhibit cell growth by 50% of untreated controls following 4 hour drug exposure, with washing and regrowth for 5 days. WT:NfsA ratios were determined as the WT IC50/NfsA IC50.

[3] = test system: human solid tumour xenograft NCI-H1299 (WT); experiment: Hypoxia-dependent binding by ex vivo flow cytometry with pimonidazole co-staining; assay type: in vivo, NIH-III nude mice; conditions: 60 mg/kg i.p.; tumours excised after 120 minutes, single cell suspension
Method: FIG. 11 illustrates the absence of hypoxic-dependent binding of compound 67 and compound 93 by flow cytometry in the human solid tumour xenograft NCI-H1299, with reference to hypoxia staining by compound 15 and pimonidazole (Hypoxyprobe™) as internal standards (positive controls). NCI-H1299 WT tumours were inoculated subcutaneously onto the flank of NIH-III nude mice. When the mixed tumours reached approximately 800 mm^3, mice were dosed i.p. with 60 mg/kg of pimonidazole, and 60 minutes later dosed with either 60 mg/kg of compound 15, or 60 mg/kg of compound 67, or 60 mg/kg of compound 93. After 120 minutes the tumours were excised and enzyme digested to form a single cell suspension before fixation in ice cold 80% ethanol. Single cell immunodetection of bound adducts of compounds was performed using a monoclonal antibody (Mab1, hybridoma clone 4.3.11.3) conjugated to Alexa-488 (Ex/Em 499/519; green) for the detection of pimonidazole adducts, and monoclonal antibody ELK3-51 directly conjugated to the fluorophore CY5 (Ex/Em 650/670 nm; red) for detection of adducts formed by compound 15 or compound 67 or compound 93. The ex-vivo tumour cell samples were analysed on a Becton Dickinson FACscan flow cytometer using FACS Diva software. Integrated fluorescence measurements were recorded for 10,000 single non-debris events. Fluorescence emission was monitored at 530 nm±20 and 670-700 nm for detection of Alexa-488 and CY5 conjugated monoclonal antibodies, respectively.

[4] = test system: human lung tumour xenograft NCI-H1299 harbouring approximately 5% NfsA-positive cells; experiment: In vivo binding by immunohistochemistry in mixed NfsA/WT xenograft; design: species or system NIH-III nude mice; conditions: 60 mg/kg i.p., tumours excised after 60 minutes; ELK3-51-CY5 antibody
Method: FIG. 8 illustrates the in vivo binding of compounds 15, 93 and 67 in the human lung tumour xenograft NCI-H1299 harbouring approximately 5% NfsA-positive cells. […] Mixed NfsA/WT NCI-H1299 cells were inoculated subcutaneously onto the flank of NIH-III nude mice. When the mixed tumours reached approximately 500 mm^3, mice were dosed i.p. with 60 mg/kg of either compound 15, compound 93 or compound 67. After 60 minutes the tumours were excised, and fixed in formalin before being embedded in paraffin wax. Tumour section were cut (5 microns) and mounted onto glass slides for immunodetection of bound adducts of compound 15, compound 93 or compound 67 using the monoclonal antibody ELK3-51 directly conjugated to the fluorophore CY5 (Ex/Em 650/670 nm). Fluorescent microscopy was employed to visualise the presence of cellular adducts of each test compound present in individual tumour cells. Image gain was reduced due to intense fluorescent signal indicating extensive adduct binding. Images were acquired on a Zeiss LSM 710 confocal microscope (×20 magnification).

[5] = test system: HCT-116 cells stably expressing E. coli NfsA; experiment: Flow cytometry of metabolism and cellular retention (EF5 antibody); assay type: cell-based, human; conditions: 20 μM; for Metabolism and cellular retention by FACS, HCT-116 NfsA cells (FIG. 3): 2 hours, oxic conditions (21% O2, 5% CO2)
Method: FIG. 3 illustrates the results of flow cytometry analysis of HCT-116 cells stably expressing E. coli NfsA relative to HCT-116 wild-type cells after in vitro exposure to 20 μM of compounds 15, 93 and 67 for 2 hours. 1×10^6 cells were incubated with test compounds under oxic conditions. Samples were fixed and stained with EF5 antibody Alexa 488 ELK3.51 at 100 μg/ml. Samples were then analysed on a Becton Dickinson FACscan flow cytometer.
FIG. 4 illustrates the results of a second independent flow cytometry analysis of compound 15 and 93 metabolism and binding in wild-type HCT-116 cells, HCT-116 cells stably over-expressing cytochrome P450 reductase (CYPOR), a human one-electron reductase known to metabolise nitroheterocyclic and nitroaromatic compounds, or HCT-116 cells stably expressing the bacterial nitroreductase E. coli NfsA. 1×10^6HCT-116 cells were seeded in 6 well plates underaerobic conditions (21% O2, 5% CO2). After 2 h incubation, drug free control (wild-type HCT-116, foreground), 20 μM (wild-type HCT-116, second plot), 100 μM (wild-type HCT-116, third plot), 20 μM (HCT-116-CYPOR, forth plot), 100 μM (HCT-116-CYPOR, fifth plot) or 20 μM (HCT-116-NfsA, sixth plot) of compound 15 or 93 was added. After 2 h incubation cells were harvested and fixed with paraformaldehyde before being incubated overnight with 100 μl of 75 μg/ml EF5 CY5 conjugated antibody. Samples were then analysed on a Becton Dickinson FACscan flow cytometer.

| Compound | Hypoxia-dependent binding in NCI-H1299 WT tumours, immunofluorescent microscopy (FIG. 10) [1] | IC50 [2] [mM] | Hypoxia-dependent binding in NCI-H1299 WT tumours, flow cytometry (FIG. 11) [3] | Detection of NfsA expressing cells after in vivo binding (FIG. 8) [4] | Metabolism and cellular retention by FACS, HCT-116 NfsA cells (FIG. 3) [5] | Metabolism and cellular retention by FACS, HCT-116 NfsA cells (FIG. 4) ([5]; 2 h, aerobic conditions) |
| --- | --- | --- | --- | --- | --- | --- |
| Cc1ncc([N+](=O)[O-])n1CC(=O)NCC(F)(F)C(F)(F)F [Compound 67, 2-(2-methyl-5-nitro-1H-imidazol-1-yl)-N-(2,2,3,3,3-pentafluoropropyl)acetamide] | not detected in the pimonidazole positive hypoxic regions of the NCI-H1299 tumours | 6.31 | unable to bind to and thus detect pimonidazole-positive (hypoxic) tumour cells | readily detected by immunohistochemistry with single cell resolution | excellent substrates for E. coli NfsA |  |
| O=C(Cn1cnc([N+](=O)[O-])c1)NCC(F)(F)C(F)(F)F [Compound 93, 2-(4-nitro-1H-imidazol-1-yl)-N-(2,2,3,3,3-pentafluoropropyl)acetamide] | not detected in the pimonidazole positive hypoxic regions of the NCI-H1299 tumours | 1.45 | unable to bind to and thus detect pimonidazole-positive (hypoxic) tumour cells | readily detected by immunohistochemistry with single cell resolution | excellent substrates for E. coli NfsA | excellent substrates for E. coli NfsA |
